From US20140018316A1, “OPHTHALMIC PHARMACEUTICAL COMPOSITION” (Hayashibara Co., Ltd., priority 2005, published 2014)

Key:
[1] = tested on: pig lens; assay: Swelling and cloudiness of extracted pig lenses soaked in test or control solutions (traumatic cataract model); set-up: key to degree of cloudiness in the lens (relative value): relative gray-scale density; uninjured lens in saline at start = 10; conditions: for degree of cloudiness in the lens (relative value) / swelling of the lens: 100 mM in physiological saline
Method: Using an injured pig lens employed as a model for traumatic cataract, the influence of cyclic tetrasaccharide on the cloudiness in the lens was experimented as follows: A test solution was previously prepared by dissolving a cyclic tetrasaccharide crystal, penta hydrate, which had been prepared by the method in the later described Reference for Example 2, in physiological saline into a physiological saline containing 100 mM cyclic tetrasaccharide. As a positive control, a physiological saline containing 100 mM α,α-trehalose, a reagent grade specimen, commercialized by Hayashibara Biochemical Laboratories, Inc., Okayama, Japan, was used; andasanegativecontrol, physiological saline was used. Two milliliter aliquots of any one of the above three kinds of aqueous solutions were added to every two wells in respective commercialized 24-well culture plates. In one of the two wells containing the same kind of solution in each plate was placed a pig lens, which had been obtained from a slaughter-house, extracted by incision within three hours after the obtention and without injuring, and washing the extracted lens with physiological saline; while in the other of the two wells was placed a pig lens, which had been prepared by the same procedure as in the above but injured with a 27-gauge injection needle (commercialized by Terumo Co., Tokyo, Japan) to form an injured line, about one millimeter in length. These lens were allowed to stand at ambient temperature and macroscopically and microscopically observed their change in the degree of cloudiness and in the shape of swelling, etc. This experiment was run in a triplicate manner, and the macroscopic and microscopic observations were done just after (0), 1 hour, 2 hours, 6 hours, and 24 hours after the lenses were placed in the wells, and then observed daily over 28 days. A similar experiment was further conducted using a physiological saline containing 75 mM, 50 mM, 20 mM, 10 mM, or 1 mM cyclic tetrasaccharide and a lens that had not been injured with the injection needle. The degree of cloudiness in each lens, observed with “STEREOMICROSCOPE SZX12”, a product name of a stereomicroscope commercialized by Olympus Co., Tokyo, Japan, was expressed by photographing a transmitted light image of each lens with “PENGUIN 150CL”, a digital camera commercialized by Pixela Co., Tokyo, Japan, capturing the transmitted image by a computer using a view finder commercialized by Olympus Co., Tokyo, Japan, and expressing numerically the degree of light and shade of the captured image as a gray-scale using “Scion Image for Windows Beta 4.0.2”, a software commercialized by Scion Co., Maryland, U.S.A., to obtain a mean density for each lens. The time course change in the degree of cloudiness in each lens placed in each solution was expressed with a relative value, regarding the degree of cloudiness, just after the lens free of injury had been placed in physiological saline, as 10. The change of cloudiness and swelling are respectively in Tables 1 and 2. In Table 1, there show only the results from time 0 hour through two days and from days 7, 14 and 28.

[2] = tested on: circular corneal fragment extracted from a pig eye ball; assay: Corneal walleye/cloudiness and edema of pig corneal fragments soaked in test or control solutions; set-up: degree of corneal walleye/cloudiness (relative value): scale not given here; key to corneal edema: ◯: Corneal edema was observed.; —: No corneal edema was observed; conditions: for corneal edema / degree of corneal walleye/cloudiness (relative value): 100 mM in physiological saline
Method: Experiment to examine the influence of cyclic tetrasaccharide on corneal walleye/cloudiness was conducted as follows: A physiological saline containing 100 mM cyclic tetrasaccharide was previously prepared for use as a test solution by dissolving a cyclic tetrasaccharide crystal, pentahydrate, which had been prepared by the later described method in Example for Reference 2. As a positive control solution, it was prepared a physiological saline containing 100 mM α,α-trehalose, a reagent grade specimen, commercialized by Hayashibara Biochemical Laboratories, Inc., Okayama, Japan; and as a negative control solution, physiological saline was used. Two milliliters of any one of the above three kinds of aqueous solutions were added to respective two wells in a commercialized 24-well culture plate. To each well in each culture plate a circular corneal fragment, which had been extracted from a pig eye ball obtained from a slaughterhouse by using a trephine for corneal transplantation, was placed and macroscopically and microscopically observed for changing in both the degree of corneal walleye/cloudiness and the change of corneal shape such as corneal edema. The macroscopic and microscopic observations were done just after the corneas were placed in the wells at (0) and at 1, 2, 6, 24, 48 and 72 hours after their placing. The methods of macroscopic and microscopic observations and the analysis of the time course change of corneal walleye/cloudiness were conducted by the same ones as used in Experiment 1. Tables 3 and 4 show the transition of corneal walleye/cloudiness and that of the corneal edema, respectively.

SMILES: OC[C@H]1O[C@H](O[C@H]2O[C@H](CO)[C@@H](O)[C@H](O)[C@H]2O)[C@H](O)[C@@H](O)[C@@H]1O [Positive control solution, α,α-trehalose, reference compound]
- degree of cloudiness in the lens (relative value) ([1]; injured lens, 1 hour): 10
- degree of cloudiness in the lens (relative value) ([1]; injured lens, 2 hours): 10
- degree of cloudiness in the lens (relative value) ([1]; injured lens, 6 hours): 15
- degree of cloudiness in the lens (relative value) ([1]; injured lens, 24 hours): 46
- degree of cloudiness in the lens (relative value) ([1]; injured lens, 2 days): 89
- swelling of the lens ([1]; injured lens, 2 days): ◯ (swelling was observed)
- degree of cloudiness in the lens (relative value) ([1]; injured lens, time 0): 10
- degree of cloudiness in the lens (relative value) ([1]; no injury, 1 hour): 13
- degree of cloudiness in the lens (relative value) ([1]; no injury, 2 hours): 13
- degree of cloudiness in the lens (relative value) ([1]; no injury, 6 hours): 12
- degree of cloudiness in the lens (relative value) ([1]; no injury, 24 hours): 14
- degree of cloudiness in the lens (relative value) ([1]; no injury, 2 days): 19
- degree of cloudiness in the lens (relative value) ([1]; no injury, 7 days): 36
- degree of cloudiness in the lens (relative value) ([1]; no injury, 14 days): 39
- degree of cloudiness in the lens (relative value) ([1]; no injury, 28 days): 75
- swelling of the lens ([1]; no injury, 28 days): ◯ (swelling was observed)
- degree of cloudiness in the lens (relative value) ([1]; no injury, time 0): 10
- swelling of the lens (in words) ([1]; 100 mM, injured lens, 2 days after initiating observation): observed to have swelling from 2 days
- cloudiness in the lens compared with the negative control solution ([1]; 100 mM, lenses with no injury): inhibited
- swelling of the lens (in words) ([1]; 100 mM, lenses with no injury, on 28 days): swelling of the lenses was macroscopically observed
- corneal edema ([2]; 1 hour): —
- degree of corneal walleye/cloudiness (relative value) ([2]; 1 hour): 11
- corneal edema ([2]; 2 hours): —
- degree of corneal walleye/cloudiness (relative value) ([2]; 2 hours): 11
- corneal edema ([2]; 6 hours): —
- degree of corneal walleye/cloudiness (relative value) ([2]; 6 hours): 13
- corneal edema ([2]; 24 hours): ◯
- degree of corneal walleye/cloudiness (relative value) ([2]; 24 hours): 30
- corneal edema ([2]; 48 hours): ◯
- degree of corneal walleye/cloudiness (relative value) ([2]; 48 hours): 60
- corneal edema ([2]; 72 hours): ◯
- degree of corneal walleye/cloudiness (relative value) ([2]; 72 hours): 70
- corneal edema ([2]; time 0): —
- degree of corneal walleye/cloudiness (relative value) ([2]; time 0): 10
- corneal edema (in words) ([2]; 100 mM, at 24 hours): macroscopic corneal edema
